Measured values reported in US11884633B2, “Arylazole compound and pest control agent” (Nippon Soda Co., Ltd., priority 2015, dated 2024).
Values belong to the molecule of their own block, whether it stands above or below them.

Key:
[1] = tested on: Mythimna separata; assay: Test Example 1: efficacy test on Mythimna separata (artificial diet); type: in vivo; details: 0.8 g artificial diet mixed with 1 μl emulsion (I) (5% active ingredient); second instar larvae; 25° C.; fifth day
Procedure: (§1) 5 parts of the compound of the present invention, 93.6 parts of dimethylformamide, and 1.4 parts of polyoxyethylene alkylaryl ether were mixed and dissolved to prepare an emulsion (I) with 5% the active ingredient.
(§2) The insecticidal rate and the control rate were calculated by the following Equation. Insecticidal rate (%)=(number of dead insects/number of test insects)×100 Control rate={1−(Nt)/(Nc)}×100
0.8 g of commercially available artificial diet (Insector LFS, manufactured by Nosan Corp.) and Emulsion (I) 1 μl were well mixed and 0.2 g per each treatment group was packed in a plastic test container (1.4 ml) to prepare test feed. Two Mythimna separata second instar larvae were inoculated into each treatment group and sealed with a plastic lid. The container was placed in a thermostatic chamber at 25° C., and the insecticidal rate and food intake were examined on the fifth day. The test was performed twice. Further, a test conducted under the same conditions except that the compound of the present invention was removed from the emulsion (I) was performed as a vehicle control group.

[2] = tested on: Aphis gossypii; assay: Test Example 11: efficacy test on Aphis gossypii (rooting treatment test); type: in vivo; details: 8 ppm; hydroponic culture of cucumber seedlings (root treatment); 6 days
Procedure: as §1, §2
The cucumber seedlings raised in a small pot were drawn out from the small pot, the soil adhering to the root portion was washed off with tap water, and the root portion was dipped in tap water and hydroponically cultivated. Cucumber seedlings were inoculated with Aphis gossypii […]. Emulsion (I) was diluted with water to obtain a diluted solution having a concentration of the compound of the present invention of 8 ppm. The tap water was replaced with the diluent and the hydroponic culture with the diluent was continued in a thermostatic chamber at a temperature of 25° C. and a humidity of 60%. When 6 days passed from the start of hydroponic culture with the diluent, life and death determination on Aphis gossypii was performed and the insecticidal rate was calculated. The test was performed twice.

[3] = tested on: housefly; assay: Test Example 12: efficacy test on housefly; type: in vivo; details: 100 ppm on cubic sugar; female adults; 25° C.; 24 hours
Procedure: as §2
The compound of the present invention was diluted with acetone and added dropwise to 1 g of cubic sugar such that the concentration was set to be 100 ppm. The cubic sugar was placed in a plastic cup, and ten housefly female adults were released and capped. After storage at 25° C. and 24 hours passing from releasing, life and death determination was performed and the insecticidal rate was calculated. The test was performed twice.

[4] = tested on: Plutella xylostella; assay: Test Example 13: efficacy test on Plutella xylostella (soil immersion test); type: in vivo; details: 500 ppm, 10 ml soil irrigation of chingengsai seedlings; adults released after 7 days; counted 7 days after release
Procedure: as §1, §2
Nt: Number of parasites in spray treatment group
Nc: Number of parasites in untreated group
Emulsion (I) was diluted with water such that the concentration of the compound of the present invention was set to be 500 ppm to obtain a test solution. 10 ml of the test solution was irrigated to the stocker at chingengsai seedlings (seventh true leaf development stage) planted in a small pot and placed in a greenhouse at 25° C. for 7 days. Chingengsai seedlings were transferred into glass greenhouse and 300 adults of Plutella xylostella per 50 chingengsai were released in glass greenhouse. When 7 days passed after release, the number of surviving Plutella xylostella infested in Chingengsai seedlings was counted and the control rate was calculated. The test was performed twice.

[5] = tested on: Ornithodoros moubata; assay: Test Example 16: feeding effect test on Ornithodoros moubata; type: in vivo; details: 10 ppm in defibrin blood of sheep; tritonymphs; 14 days after blood sucking
Procedure: as §2
A DMSO solution of the compound of the present invention was mixed with the defibrin blood of sheep to obtain a mixed solution of 10 ppm. 2 ml of this mixed solution was placed in a container and capped with a parafilm membrane. In addition, 20 tritonymphs of Ornithodoros moubata were released and allowed to suck the blood through a parafilm membrane for about 30 minutes. The nymphs were transferred to a storage container and incubated in a thermostatic chamber at a temperature of 28° C. and a humidity of 80%, and the life and death and developmental stage were observed 14 days after blood sucking. The test was performed twice.

[6] = tested on: Rhipicephalus microplus; assay: Test Example 17: contact effect test on Rhipicephalus microplus; type: in vivo; details: 100 ppm test solution; larvae; 24 hours after treatment
Procedure: as §2
A DMSO solution of the compound of the present invention was diluted with water to obtain a test solution at 100 ppm. This drug solution was dropped into a container containing 20 larvae of Rhipicephalus microplus and incubated in a thermostatic chamber at a temperature of 28° C. and a humidity of 80%. The larvae's life and death were determined 24 hours after the drug treatment. The test was performed twice.

[7] = tested on: Lucilia cuprina larvae; assay: Test Example 18: contact/feeding effect test on Lucilia cuprina larvae; type: in vivo; details: 1000 ppm in horse meat, 48 hours
Procedure: as §2
A DMSO solution of the compound of the present invention was mixed with horse meat to obtain a mixture of 1000 ppm. 20 Lucilia cuprina larvae were introduced into the test tube with the mixture. The mixture was incubated in a thermostatic chamber at a temperature of 28° C. and a humidity of 80%, and the larvae's life and death were determined 48 hours after the start of the test. The test was performed twice.

[8] = tested on: Aedes aegypti larvae; assay: Test Example 19: contact/feeding effect test on Aedes aegypti larvae; type: in vivo; details: final concentration 10 ppm; first instar larvae; 48 hours
Procedure: as §2
A DMSO solution of the compound of the present invention was diluted with water to obtain a diluted solution of 100 ppm. 10 Aedes aegypti first instar larvae were placed in each well of a 96-well microtiter plate together with breeding water, 1/10 of 100 ppm diluted solution were added and tested at a final concentration of 10 ppm. The mixture was incubated in a thermostatic chamber at a temperature of 28° C. and a humidity of 80%, and the larvae's life and death were determined for 48 hours after the drug treatment. The test was performed twice.

Structure (SMILES): CCS(=O)(=O)c1ccc(-n2ncnc2N)nc1-n1ncc(C=C(Cl)C(F)(F)C(F)(F)F)c1C [10-11]
feeding amount in comparison with the vehicle control group [1]: ≤ 10%

Structure (SMILES): CCS(=O)(=O)c1cccnc1-n1ncc(C=C(Cl)C(F)(F)C(F)(F)F)c1C [10-7]
feeding amount in comparison with the vehicle control group [1]: ≤ 10%

melting point: 211 to 215 °C
Structure (SMILES): CCS(=O)(=O)c1cc(C(F)(F)F)ccc1-n1ncc(C(=O)On2nnc3ccccc32)c1C [15-2]

Structure (SMILES): CCS(=O)(=O)c1ccc(-n2cncn2)nc1-n1ncc(C=C(Cl)C(F)(F)C(F)(F)F)c1C [10-5]
feeding amount in comparison with the vehicle control group [1]: ≤ 10%

Structure (SMILES): CCS(=O)(=O)c1cc(C(F)(F)F)ccc1-c1ncc(/C=C/C(F)(F)F)n1C [1-10]
feeding amount in comparison with the vehicle control group [1]: ≤ 10%

Structure (SMILES): CCS(=O)(=O)c1ccc(-n2cnc(N)n2)nc1-n1ncc(C=C(Cl)C(F)(F)C(F)(F)F)c1C [10-10]
feeding amount in comparison with the vehicle control group [1]: ≤ 10%

Structure (SMILES): CCS(=O)(=O)c1cc(C(F)(F)F)ccc1-c1ncc(C=C(Cl)C(F)(F)F)n1C [1-1, 5-(2-Chloro-3,3,3-trifluoroprop-1-en-1-yl)-2-(2-(ethylsulfonyl)-4-(trifluoromethyl)phenyl)-1-methyl-1H-imidazole]
insecticidal rate [2]: ≥ 80%
insecticidal rate [3]: ≥ 80%
control rate [4]: ≥ 80%
insecticidal rate [5]: ≥ 90%
insecticidal rate [6]: ≥ 90%
insecticidal rate [7]: ≥ 90%
insecticidal rate [8]: ≥ 90%

Structure (SMILES): CCSc1cccnc1-n1ncc(C=C(Cl)C(F)(F)C(F)(F)F)c1C [10-6]
feeding amount in comparison with the vehicle control group [1]: ≤ 10%

Structure (SMILES): CCS(=O)(=O)c1ccc(-n2cncn2)nc1-n1ncc(C=C(Cl)C(F)(F)F)c1C (mixture of isomers) [10-4]
feeding amount in comparison with the vehicle control group [1]: ≤ 10%

melting point: 155 to 156 °C
Structure (SMILES): CCSc1cc(C(F)(F)F)ccc1-c1ncc(C(=O)N2CC(F)(F)C(F)(F)C2)n1C [15-3]

Structure (SMILES): CCS(=O)(=O)c1cc(C(F)(F)F)cnc1-n1ncc(C=C(Cl)C(F)(F)F)c1C (mixture of isomers) [10-2]
feeding amount in comparison with the vehicle control group [1]: ≤ 10%

Structure (SMILES): CCS(=O)(=O)c1ccc(-n2cncn2)nc1-c1ncc(C=C(Cl)C(F)(F)C(F)(F)F)n1C [4-10]
feeding amount in comparison with the vehicle control group [1]: ≤ 10%

Structure (SMILES): CCS(=O)(=O)c1cccnc1-n1ncc(C=C(Cl)C(F)(F)F)c1C (mixture of isomers) [10-3]
feeding amount in comparison with the vehicle control group [1]: ≤ 10%
